Laboratory results: US20240226076A1, “Inhibitors of Tryptases and Their Use in Treating Allergies” (The Board of Trustees of the Leland Stanford Junior …, priority 2021, published 2024)

What was measured:
Kallikrein-14 = target: T1, Kallikrein-14 (Homo sapiens, UniProt Q9P0G3); test: Protease activity array (Reaction Biology Corp), Kallikrein-14; assay type: biochemical; details: recombinant protease, 10-dose IC50, fluorescently labeled peptide substrate
T1 construct: purchased Reaction Biology Corp
T1 sequence (Q9P0G3 25-251): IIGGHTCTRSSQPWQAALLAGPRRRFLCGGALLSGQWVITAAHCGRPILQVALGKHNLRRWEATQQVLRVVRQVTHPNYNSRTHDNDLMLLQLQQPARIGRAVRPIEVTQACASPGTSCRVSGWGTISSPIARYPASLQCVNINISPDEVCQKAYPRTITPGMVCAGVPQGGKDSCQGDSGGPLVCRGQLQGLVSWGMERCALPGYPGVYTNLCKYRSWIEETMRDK
Method: (§1) Avoralstat can inhibit Tryptase-b2 and -g1 as well as it inhibits KLKB1 in vitro. Avoralstat was assessed for inhibition against a panel of recombinant proteases including 2 Tryptases (Tryptase-b2 and -g1) and KLKB1 by commercial services from Reaction Biology Corp. The Reaction Biology Corp profile tested in a 10-dose IC50, with a dose range from 38 pM to 10 μM, against 70 proteases in FIG. 1E.
(§2) Protease activity array. […] The protease activities were monitored as a time-course measurement of the increase in fluorescence signal from fluorescently labeled peptide substrate, and initial linear portion of slope (signal/min) was analyzed.

Kallikrein-12 = target: T2, Kallikrein-12 (Homo sapiens, UniProt Q9UKR0); test: Protease activity array (Reaction Biology Corp), Kallikrein-12; assay type: biochemical; details: recombinant protease, 10-dose IC50, fluorescently labeled peptide substrate
T2 construct: purchased Reaction Biology Corp
T2 sequence (Q9UKR0 18-248): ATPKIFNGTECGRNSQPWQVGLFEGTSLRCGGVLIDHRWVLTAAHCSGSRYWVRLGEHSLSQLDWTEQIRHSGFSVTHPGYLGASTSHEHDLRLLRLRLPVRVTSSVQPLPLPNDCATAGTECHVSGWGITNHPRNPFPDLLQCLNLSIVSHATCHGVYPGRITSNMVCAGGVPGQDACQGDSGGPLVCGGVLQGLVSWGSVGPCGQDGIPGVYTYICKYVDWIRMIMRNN
Method: as §1, §2

[1] = oral drug, phase III clinical trials for hereditary angioedema; cited from earlier work
KLKB1 = target: T3, KLKB1 (Homo sapiens, UniProt P03952); test: Protease activity array (Reaction Biology Corp), KLKB1; assay type: biochemical
T3 construct: purchased Reaction Biology Corp
Method: as §1, §2

Tryptase-g1 = target: T4, Tryptase-g1 (Homo sapiens, UniProt Q9NRR2); test: Protease activity array (Reaction Biology Corp), Tryptase-g1; assay type: biochemical
T4 construct: purchased Reaction Biology Corp
Method: as §1, §2

Tryptase-b2 = target: T5, Tryptase-b2 (Homo sapiens, UniProt P20231); test: Protease activity array (Reaction Biology Corp), Tryptase-b2; assay type: biochemical
T5 construct: purchased Reaction Biology Corp
Method: as §1, §2

T5 sequence (P20231 31-275): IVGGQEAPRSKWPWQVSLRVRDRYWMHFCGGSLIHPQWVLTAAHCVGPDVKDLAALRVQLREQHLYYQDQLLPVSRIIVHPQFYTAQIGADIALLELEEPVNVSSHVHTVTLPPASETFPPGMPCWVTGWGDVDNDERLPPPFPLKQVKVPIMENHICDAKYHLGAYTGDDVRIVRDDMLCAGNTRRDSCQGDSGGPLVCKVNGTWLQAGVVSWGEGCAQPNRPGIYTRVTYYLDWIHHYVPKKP
T3 sequence (P03952 20-638): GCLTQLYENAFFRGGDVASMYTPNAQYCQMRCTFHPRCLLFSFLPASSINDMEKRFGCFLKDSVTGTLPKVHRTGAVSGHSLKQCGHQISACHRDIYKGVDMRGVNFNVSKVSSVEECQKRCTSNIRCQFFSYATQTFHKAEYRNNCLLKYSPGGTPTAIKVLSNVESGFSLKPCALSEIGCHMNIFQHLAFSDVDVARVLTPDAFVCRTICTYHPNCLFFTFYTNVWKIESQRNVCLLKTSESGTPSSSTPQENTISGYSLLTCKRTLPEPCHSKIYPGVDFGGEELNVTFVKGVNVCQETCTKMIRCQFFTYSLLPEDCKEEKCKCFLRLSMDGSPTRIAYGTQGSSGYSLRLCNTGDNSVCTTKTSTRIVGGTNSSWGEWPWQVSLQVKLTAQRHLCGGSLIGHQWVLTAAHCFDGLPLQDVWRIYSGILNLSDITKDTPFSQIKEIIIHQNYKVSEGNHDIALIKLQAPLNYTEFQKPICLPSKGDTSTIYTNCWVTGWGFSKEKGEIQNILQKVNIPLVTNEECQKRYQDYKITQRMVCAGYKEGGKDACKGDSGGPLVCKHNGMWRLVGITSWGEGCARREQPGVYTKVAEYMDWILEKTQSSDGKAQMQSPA
T4 sequence (Q9NRR2 20-321): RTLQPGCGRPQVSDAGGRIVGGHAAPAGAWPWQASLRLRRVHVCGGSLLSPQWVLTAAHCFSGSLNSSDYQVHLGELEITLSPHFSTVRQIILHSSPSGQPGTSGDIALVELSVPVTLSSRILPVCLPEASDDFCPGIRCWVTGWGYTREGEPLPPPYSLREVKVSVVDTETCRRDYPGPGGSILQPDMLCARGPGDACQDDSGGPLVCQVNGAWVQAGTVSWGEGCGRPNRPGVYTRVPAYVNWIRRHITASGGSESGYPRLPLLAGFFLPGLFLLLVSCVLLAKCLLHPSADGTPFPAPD

In the case of `C=Cc1cc(C(=O)Nc2ccc(C(=N)N)cc2)c(-c2ccc(C(=O)NCC3CC3)nc2C(=O)O)cc1OC` [Avoralstat], the inhibition (Kallikrein-14) is listed as “sub-nanomolar inhibition”, the inhibition (Kallikrein-12) is listed as “sub-nanomolar inhibition” and the clinical safety [1] is listed as “clinically proven to be safe”. For the same compound, the IC50 (KLKB1) was 0.13 nM, the IC50 (Tryptase-g1) was 0.93 nM and the IC50 (Tryptase-b2) was 0.99 nM.
